According to patent US9776991B2, “Thienomethylpiperazine derivatives as inhibitors of soluble epoxide hydrolase” (SANOFI, priority 2013, dated 2017):
Counter-ions that a name gives are not always drawn.

Molecular target: recombinant sEH (soluble epoxide hydrolase, EPHX2) (Homo sapiens (Human), UniProt P34913)
Assay: biochemical fluorometric sEH inhibition assay with Phome substrate
Details: recombinant sEH purified from Sf9 insect cells, 2 nM sEH, 5 μM Phome, 60 minutes at 30° C.
Description: Compounds were tested in a biochemical screening assay using recombinant sEH purified from Sf9 insect cells and an artificial substrate, (3-phenyl-oxiranyl)-acetic acid cyano-(6-methoxy-naphtalen-2-yl)-methyl ester, Phome. The biochemical assay was performed in analogy to a fluorometric described in the literature (P. D. Jones et al., Anal. Biochem. 2005, 343, 66-75). The assay principle bases on the sEH-catalyzed hydrolysis of an artificial α-cyano-ester substrate. O-deacetylation liberates a cyanohydrin intermediate that rapidly decomposes to the highly fluorescent 6-methoxy-2-naphtaldehyde. To discriminate sample autofluorescence, the assay was carried out as a kinetic measurement with two time points. The first measurement is performed immediately before addition of the substrate and the […] measurement is done after completion of the assay. The assay format is either in 96- or in 384-well format.
Details of the assay using a 96-well plate format are described below. 40 μl recombinant sEH enzyme and 5 μl test compound are pre-incubated for 15 minutes at 30° C. Following pre-incubation, the reaction is started by addition of 5 μl Phome. The assay mixture containing 2 nM final sEH concentration, test compound ranging in a concentration from 0.0001-10 μM and 5 μM Phome is incubated for 60 minutes at 30° C.
Fluorescence is measured with any suitable detector for instance a TECAN Safire or Tecan Ultra at […]. % inhibition of recombinant sEH activity is used for calculation of corresponding IC50 values as illustrated and described in the examples.
The NCBI gene bank reference sequence with the accession number NM_001979 for EPHX2/sEH was applied for recombinant protein production:
The following commercially available materials have been used: • Incubation reagent: 25 mM Hepes (Sigma-Aldrich, Cat. No H-3375), 0.01% bovine albumin (Sigma-Aldrich Cat. No PA9205) • Substrate: 3-Phenyl-oxiranyl)-acetic acid cyano-(6-methoxy-naphtalen-2-yl)-methyl ester, Phome (Biozol Cat. No 10003134) • Microtiter plates: 96-well plates (Greiner Cat. No 655180; Costar Cat. No 3915)

Sequence of recombinant sEH (soluble epoxide hydrolase, EPHX2) (P34913 whole entry): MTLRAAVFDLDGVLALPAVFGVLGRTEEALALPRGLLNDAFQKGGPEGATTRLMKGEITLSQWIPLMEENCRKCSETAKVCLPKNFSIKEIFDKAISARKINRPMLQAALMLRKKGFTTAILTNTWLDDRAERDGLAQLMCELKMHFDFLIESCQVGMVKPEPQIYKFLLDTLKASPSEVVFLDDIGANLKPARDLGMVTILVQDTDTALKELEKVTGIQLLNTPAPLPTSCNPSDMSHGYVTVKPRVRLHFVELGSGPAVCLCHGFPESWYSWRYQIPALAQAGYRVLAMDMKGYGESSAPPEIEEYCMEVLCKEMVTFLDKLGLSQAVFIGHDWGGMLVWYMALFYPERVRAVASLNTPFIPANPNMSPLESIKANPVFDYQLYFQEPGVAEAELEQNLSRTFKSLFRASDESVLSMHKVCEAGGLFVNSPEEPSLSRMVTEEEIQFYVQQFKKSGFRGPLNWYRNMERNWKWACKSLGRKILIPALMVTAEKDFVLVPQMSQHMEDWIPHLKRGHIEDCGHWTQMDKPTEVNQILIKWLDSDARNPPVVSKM

Row | SMILES | IC50 [nM]
1 | CC(C)(O)CC(=O)N1CCN(Cc2ccc(C(=O)NCc3ccccc3OC(F)(F)F)s2)CC1 [Example 128] | 1.73
2 | O=C(NCc1ccccc1OC(F)(F)F)c1ccc(CN2CCN(C(=O)c3nc(F)ccc3F)CC2)s1 [Example 129] | 1.73
3 | Cn1cccc1C(=O)N1CCN(Cc2ccc(C(=O)NCc3ccc(Cl)cc3Cl)s2)CC1 [Example 130] | 1.73
4 | O=C(NCc1ccc(Cl)cc1Cl)c1ccc(CN2CCN(C(=O)c3ccccc3F)CC2)s1 [Example 131] | 2.13
5 | O=C(NCc1ccccc1OC(F)(F)F)c1ccc(CN2CCN(C(=O)c3cccc(O)n3)CC2)s1 [Example 132] | 2.09
6 | NC1(C(=O)N2CCN(Cc3ccc(C(=O)NCc4ccc(Cl)cc4Cl)s3)CC2)CCOCC1 [Example 133] | 2.14
7 | COc1ccc(CNC(=O)c2ccc(CN3CCN(C)C(=O)C3)s2)c(OC(F)(F)F)c1 [Example 134] | 2.15
8 | CNC(=O)c1cccnc1N1CCN(Cc2ccc(C(=O)NCc3ccccc3OC(F)(F)F)s2)CC1 [Example 135] | 2.14
9 | O=C(NCc1ccccc1OC(F)(F)F)c1ccc(CN2CCN(c3ccc(O)nn3)CC2)s1 [Example 136] | 2.13
10 | CSCCC(=O)N1CCN(Cc2ccc(C(=O)NCc3ccccc3OC(F)(F)F)s2)CC1 [Example 137] | 1.76
11 | CC(C(=O)N1CCN(Cc2ccc(C(=O)NCc3ccccc3OC(F)(F)F)s2)CC1)N(C)C (stereo not drawn) [Example 138] | 6.27
12 | COc1cc(CNC(=O)c2ccc(CN3CCN(C(=O)c4c(C)n[nH]c4C)CC3)s2)ccn1 [Example 139, 5-[4-(3,5-Dimethyl-1H-pyrazole-4-carbonyl)-piperazin-1-ylmethyl]-thiophene-2-carboxylic acid (2-methoxy-pyridin-4-ylmethyl)-amide trifluoroacetate] | 2.85
13 | COCCCC(=O)N1CCN(Cc2ccc(C(=O)NCc3ccccc3OC(F)(F)F)s2)CC1 [Example 140] | 1.81
14 | O=C(NCc1ccccc1OC(F)(F)F)c1ccc(CN2CCN(C(=O)C3CC3)CC2)s1 [Example 141] | 1.86
15 | O=C(NCc1ccccc1OC(F)(F)F)c1ccc(CN2CCN(c3nncs3)CC2)s1 [Example 142] | 1.82
16 | NC1(C(=O)N2CCN(Cc3ccc(C(=O)NCc4ccccc4OC(F)(F)F)s3)CC2)CCC1 [Example 143] | 1.85
17 | NC(CF)C(=O)N1CCN(Cc2ccc(C(=O)NCc3ccccc3OC(F)(F)F)s2)CC1 (stereo not drawn) [Example 144] | 1.79
18 | NC1(C(=O)N2CCN(Cc3ccc(C(=O)NCc4ccccc4OC(F)(F)F)s3)CC2)CCOCC1 [Example 145] | 1.88
19 | COc1ccc(CNC(=O)c2ccc(CN3CCN(c4ccc(CO)cn4)CC3)s2)c(OC(F)(F)F)c1 [Example 146] | 1.94
20 | O=C(NCc1ccccc1OC(F)(F)F)c1ccc(CN2CCN(C(=O)C3COCCO3)CC2)s1 (stereo not drawn) [Example 147] | 1.96
21 | Cc1cc(C(=O)NCc2ccccc2OC(F)(F)F)sc1CN1CCN(C(=O)c2c(C)cc(=O)oc2C)CC1 [Example 148] | 1.87

Row | SMILES | IC50 [nM]
22 | COc1cc(CNC(=O)c2ccc(CN3CCN(C(=O)c4nc(F)ccc4F)CC3)s2)ccn1 [Example 149, 5-[4-(3,6-Difluoro-pyridine-2-carbonyl)-piperazin-1-ylmethyl]-thiophene-2-carboxylic acid (2-methoxy-pyridin-4-ylmethyl)-amide] | 8.2
23 | Cc1cc(=O)oc(C)c1C(=O)N1CCN(Cc2ccc(C(=O)NCc3ccccc3OC(F)F)s2)CC1 [Example 150] | 1.87
24 | O=C(NCc1ccccc1C(F)(F)F)c1ccc(CN2CCN(C(=O)c3cnn4ccccc34)CC2)s1 [Example 151] | 1.97
25 | Cc1ccc(C(=O)N2CCN(Cc3ccc(C(=O)NCc4ccccc4C(F)(F)F)s3)CC2)s1 [Example 152] | 2.07
26 | O=C(NCc1ccc(Cl)cc1Cl)c1ccc(CN2CCN(C(=O)[C@@H]3C[C@H]3c3ccccc3)CC2)s1 [Example 153] | 2.56
27 | Cc1ccc(C(=O)N2CCN(Cc3ccc(C(=O)NCc4ccc(Cl)cc4Cl)s3)CC2)s1 [Example 154] | 2.05
28 | CC(O)C(=O)N1CCN(Cc2ccc(C(=O)NCc3ccccc3OC(F)(F)F)s2)CC1 (stereo not drawn) [Example 155] | 1.99
29 | O=C(NCc1ccccc1OC(F)(F)F)c1ccc(CN2CCN(C(=O)CN3CCOC3=O)CC2)s1 [Example 156] | 2
30 | NC1(C(=O)N2CCN(Cc3ccc(C(=O)NCc4ccccc4OC(F)(F)F)s3)CC2)CCCCC1 [Example 157] | 2.08
31 | COCc1cc(O)nc(N2CCN(Cc3ccc(C(=O)NCc4ccccc4OC(F)(F)F)s3)CC2)n1 [Example 158] | 2.04
32 | Cc1cc(C(=O)NCCC(C)(C)C)sc1CN1CCN(C(=O)c2c(C)cc(=O)oc2C)CC1 [Example 159] | 0.8
33 | Cc1noc(C)c1C(=O)N1CCN(Cc2ncc(C(=O)NCc3ccc(Cl)cc3Cl)s2)CC1 [Example 160] | 1.41
34 | CC1(C)OC(=O)CC1C(=O)N1CCN(Cc2ncc(C(=O)NCc3ccc(Cl)cc3Cl)s2)CC1 (stereo not drawn) [Example 161] | 6.11
35 | Cc1cc(=O)oc(C)c1C(=O)N1CCN(Cc2ncc(C(=O)NCc3ccc(Cl)cc3Cl)s2)CC1 [Example 162] | 12.2
36 | O=C(NCc1ccc(Cl)cc1Cl)c1cnc(CN2CCN(C(=O)CCO)CC2)s1 [Example 163] | 25.2
37 | CSCCC(=O)N1CCN(Cc2ncc(C(=O)NCc3ccc(Cl)cc3Cl)s2)CC1 [Example 164] | 11.4
38 | Cc1noc(C)c1CC(=O)N1CCN(Cc2ncc(C(=O)NCc3ccc(Cl)cc3Cl)s2)CC1 [Example 165] | 9.61
39 | COCCCC(=O)N1CCN(Cc2ncc(C(=O)NCc3ccc(Cl)cc3Cl)s2)CC1 [Example 166] | 21.3
40 | CCC(C)(O)C(=O)N1CCN(Cc2ncc(C(=O)NCc3ccc(Cl)cc3Cl)s2)CC1 (stereo not drawn) [Example 167] | 12.2
41 | O=C(NCc1ccc(Cl)cc1Cl)c1cnc(CN2CCN(C(=O)CN3CCCC3=O)CC2)s1 [Example 168] | 77.9
42 | CC(C(=O)N1CCN(Cc2ncc(C(=O)NCc3ccc(Cl)cc3Cl)s2)CC1)N1CCCC1=O (stereo not drawn) [Example 169] | 8.76

Row | SMILES | IC50 [nM]
43 | O=C(NCc1ccc(Cl)cc1Cl)c1cnc(CN2CCN(C(=O)C3COCCO3)CC2)s1 (stereo not drawn) [Example 170] | 18
44 | O=C(NCc1ccc(Cl)cc1Cl)c1cnc(CN2CCN(C(=O)C3CC3)CC2)s1 [Example 171] | 15.8
45 | CC(C)(O)C(=O)N1CCN(Cc2ncc(C(=O)NCc3ccc(Cl)cc3Cl)s2)CC1 [Example 172] | 10.8
46 | COCCC(=O)N1CCN(Cc2ncc(C(=O)NCc3ccc(Cl)cc3Cl)s2)CC1 [Example 173] | 33.4
47 | Cc1cccc(C(=O)N2CCN(Cc3ncc(C(=O)NCc4ccc(Cl)cc4Cl)s3)CC2)n1 [Example 174] | 14.8
48 | O=C(NCc1ccc(Cl)cc1Cl)c1cnc(CN2CCN(C(=O)c3cccc(O)n3)CC2)s1 [Example 175] | 20.4
49 | CC(C)(CO)C(=O)N1CCN(Cc2ncc(C(=O)NCc3ccc(Cl)cc3Cl)s2)CC1 [Example 176] | 13.4
50 | CC(C(=O)N1CCN(Cc2ncc(C(=O)NCc3ccc(Cl)cc3Cl)s2)CC1)N(C)C (stereo not drawn) [Example 177, 2-[4-(2-Dimethylamino-propionyl)-piperazin-1-ylmethyl]-thiazole-5-carboxylic acid 2,4-dichloro-benzylamide] | 91.1
51 | O=C(NCc1ccc(Cl)cc1Cl)c1cnc(CN2CCN(C(=O)c3ccc[nH]c3=O)CC2)s1 [Example 178] | 58.6
52 | CC[C@@H](O)C(=O)N1CCN(Cc2ncc(C(=O)NCc3ccc(Cl)cc3Cl)s2)CC1 [Example 179] | 24.1
53 | O=C(NCc1ccc(Cl)cc1Cl)c1cnc(CN2CCN(C(=O)c3nc(F)ccc3F)CC2)s1 [Example 180] | 8.46
54 | O=C(NCc1ccc(Cl)cc1Cl)c1cnc(CN2CCN(C(=O)CO)CC2)s1 [Example 181] | 52.1
55 | O=C(NCc1ccc(Cl)cc1Cl)c1cnc(CN2CCN(C(=O)C3CCCO3)CC2)s1 (stereo not drawn) [Example 182] | 18.4
56 | O=C(NCc1ccc(Cl)cc1Cl)c1cnc(CN2CCN(C(=O)C3CCOC3)CC2)s1 (stereo not drawn) [Example 183] | 18.8
57 | CN1CCC[C@H]1C(=O)N1CCN(Cc2ncc(C(=O)NCc3ccc(Cl)cc3Cl)s2)CC1 [Example 184] | 115
58 | CC(C)(O)CC(=O)N1CCN(Cc2ncc(C(=O)NCc3ccc(Cl)cc3Cl)s2)CC1 [Example 185] | 13.8
59 | O=C(NCc1ccc(Cl)cc1Cl)c1cnc(CN2CCN(C(=O)c3ccccn3)CC2)s1 [Example 186] | 33.7
60 | COCCOCC(=O)N1CCN(Cc2ncc(C(=O)NCc3ccc(Cl)cc3Cl)s2)CC1 [Example 188] | 15.9
61 | CC(O)C(=O)N1CCN(Cc2ncc(C(=O)NCc3ccc(Cl)cc3Cl)s2)CC1 (stereo not drawn) [Example 189] | 28.9
62 | CN1CCC(C(=O)N2CCN(Cc3ncc(C(=O)NCc4ccc(Cl)cc4Cl)s3)CC2)CC1 [Example 190] | > 1000
63 | CC[C@H](O)C(=O)N1CCN(Cc2ncc(C(=O)NCc3ccc(Cl)cc3Cl)s2)CC1 [Example 191] | 14
